How the values were obtained:
[1] = target: T1, 5-hydroxytryptamine receptor 2C (Rattus norvegicus, UniProt P08909); experiment: biochemical
T1 sequence (P08909 whole entry): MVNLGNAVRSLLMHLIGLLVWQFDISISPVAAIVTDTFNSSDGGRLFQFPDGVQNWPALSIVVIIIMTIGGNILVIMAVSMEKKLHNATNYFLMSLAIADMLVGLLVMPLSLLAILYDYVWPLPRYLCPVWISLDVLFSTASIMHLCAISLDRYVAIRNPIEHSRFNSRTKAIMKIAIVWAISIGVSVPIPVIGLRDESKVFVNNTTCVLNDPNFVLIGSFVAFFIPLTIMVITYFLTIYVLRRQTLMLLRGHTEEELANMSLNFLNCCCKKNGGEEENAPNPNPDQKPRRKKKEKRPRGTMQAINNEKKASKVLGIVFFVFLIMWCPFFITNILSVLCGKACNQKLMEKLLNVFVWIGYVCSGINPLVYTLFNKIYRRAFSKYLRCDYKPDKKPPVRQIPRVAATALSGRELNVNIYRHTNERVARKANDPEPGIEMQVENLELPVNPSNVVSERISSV
Description: Displacement of [3H]mesulergine from 5-HT2C receptor in Sprague-Dawley rat choroid plexus membranes after 30 mins by liquid scintillation spectrophotometric analysis

[2] = target: Sodium-dependent serotonin transporter (Rattus norvegicus, UniProt P31652); experiment: biochemical
Description: Displacement of [3H]citalopram from SERT in Sprague-Dawley rat whole brain membranes after 1 hr by liquid scintillation spectrophotometric analysis

[3] = target: T2, 5-hydroxytryptamine receptor 2C (Rattus norvegicus) (UniProt P08909); experiment: Displacement of [3H]mesulergine from 5-HT2C receptor in Sprague-Dawley rat choroid plexus membranes at 1000 nM after 30 mins by liquid scintillation spectrophotometric analysis relative to control; conditions: Membrane
T2 sequence (whole entry): T1 sequence (P08909 whole entry)

[4] = target: Sodium-dependent serotonin transporter (Rattus norvegicus) (UniProt P31652); experiment: Displacement of [3H]citalopram from SERT in Sprague-Dawley rat whole brain membranes at 300 nM after 1 hr by liquid scintillation spectrophotometric analysis relative to control; format: tissue-based; conditions: Membrane
in vitro = conditions: human, Caco-2
Description: Efflux ratio of apparent permeability from basolateral to apical over apical to basolateral side in vinblastine-treated human Caco2 cells at 3 to 50 uM

[5] = Apparent permeability from apical to basolateral side in vinblastine-treated human Caco2 cells at 3 to 50 uM; format: ADME, cell-based; conditions: Caco-2
Liver = experiment: Intrinsic clearance in mouse liver microsomes measured per gram of tissue at 2.5 uM after 20 mins; format: ADME
Liver microsome = experiment: Intrinsic clearance in human liver microsomes measured per gram of tissue at 2.5 uM after 20 mins; format: ADME

Sequence of Sodium-dependent serotonin transporter (P31652 whole entry): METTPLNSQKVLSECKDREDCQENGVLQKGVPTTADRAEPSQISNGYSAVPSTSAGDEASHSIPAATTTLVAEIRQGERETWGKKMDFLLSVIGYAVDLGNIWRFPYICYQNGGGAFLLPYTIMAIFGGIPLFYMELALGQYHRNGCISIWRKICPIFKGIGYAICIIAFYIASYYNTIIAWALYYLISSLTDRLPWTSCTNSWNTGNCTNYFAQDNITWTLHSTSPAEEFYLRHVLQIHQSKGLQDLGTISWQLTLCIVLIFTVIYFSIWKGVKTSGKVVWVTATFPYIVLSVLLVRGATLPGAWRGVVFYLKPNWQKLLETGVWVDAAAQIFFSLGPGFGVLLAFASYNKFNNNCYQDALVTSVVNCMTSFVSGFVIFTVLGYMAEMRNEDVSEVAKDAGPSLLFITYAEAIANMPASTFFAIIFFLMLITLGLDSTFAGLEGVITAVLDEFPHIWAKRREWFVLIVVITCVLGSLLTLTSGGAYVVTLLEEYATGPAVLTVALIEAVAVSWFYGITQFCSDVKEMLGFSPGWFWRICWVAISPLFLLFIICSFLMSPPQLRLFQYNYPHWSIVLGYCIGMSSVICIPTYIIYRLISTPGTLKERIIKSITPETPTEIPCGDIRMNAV
Sequence of Sodium-dependent serotonin transporter (Rattus norvegicus) (P31652 whole entry): as above

## CN(C)CCC(Oc1ccc(NC(=O)Nc2ccc(Cl)c(Cl)c2)cc1)c1ccccc1 (centres undefined)
[1]
  Ki: 2.9 nM
[2]
  Ki: 135 nM

## CN(C)CCC(Oc1cccc(NC(=O)Nc2ccc3c(ccn3C)c2)c1)c1ccccc1 (centres undefined)
[1]
  Ki: 652 nM
[2]
  Ki: 9.4 nM

## CN(C)CCC(Oc1ccc(N2CCN(c3ccc(Cl)c(Cl)c3)C2=O)cc1)c1ccccc1 (centres undefined)
[1]
  Ki: 10.2 nM
[2]
  Ki: 102 nM

## Cn1ccc2cc(NC(=O)Nc3cccnc3)ccc21
[1]
  Ki: 124 nM
[2]
  Ki: > 10000 nM

## CN(C)CCC(Oc1ccc(NC(=O)Nc2ccc3ccccc3c2)cn1)c1ccccc1 (centres undefined)
[3]
  inhibition: 43%
[4]
  inhibition: 3%

## O=C(Nc1cccnc1)Nc1ccc2ccccc2c1
[1]
  Ki: 6.2 nM
[2]
  Ki: > 10000 nM

## COc1ccc(NC(=O)Nc2ccc(OC(CCN(C)C)c3ccccc3)cc2)cc1C(F)(F)F (centres undefined)
[1]
  Ki: 3.3 nM
[2]
  Ki: 96.4 nM

## CN(C)CCC(Oc1ccc(NC(=O)Nc2ccc3c(ccn3C)c2)cn1)c1ccccc1 (centres undefined)
[3]
  inhibition: 7%
[4]
  inhibition: -5%

## CCn1ccc2cc(NC(=O)Nc3ccc(OC(CCN(C)C)c4ccccc4)cc3)ccc21 (centres undefined)
[1]
  Ki: 10.7 nM
[2]
  Ki: 37.9 nM

## COc1ccc(C(=O)Nc2ccc(OC(CCN(C)C)c3ccccc3)cc2)cc1C(F)(F)F (centres undefined)
[1]
  Ki: 90.6 nM
[2]
  Ki: 22.3 nM

## CN(C)CCC(Oc1ccc(NC(=O)Nc2ccc3c(ccn3C)c2)cc1)c1ccccc1 (centres undefined)
In vitro
  efflux ratio at 50 µM: 5.3
[1]
  Ki: 15.9 nM
[2]
  Ki: 9 nM
[5]
  Papp A→B at 50 µM: 5.8 ×10⁻⁶ cm/s

## Cc1ccc(NC(=O)Nc2ccc(OC(CCN(C)C)c3ccccc3)cc2)cc1I (centres undefined)
[1]
  Ki: 2.4 nM
[2]
  Ki: 121 nM

## CN(C)CCC(Oc1ccc(NC(=O)Nc2ccc3ccn(C)c3c2)cc1)c1ccccc1 (centres undefined)
[1]
  Ki: 10.9 nM
[2]
  Ki: 19.3 nM

## Cc1ccc(NC(=O)Nc2ccc(OC(CCN(C)C)c3ccccc3)cc2)cc1Cl (centres undefined)
Liver
  CLH: 0.9 mL/min
[1]
  Ki: 0.6 nM
[2]
  Ki: 61.4 nM
Liver microsome
  CLH: 0.06 mL/min

## Cc1ccc(C(=O)Nc2ccc(OC(CCN(C)C)c3ccccc3)cc2)cc1Cl (centres undefined)
In vitro
  efflux ratio at 50 µM: 0.7
[1]
  Ki: 45.3 nM
[2]
  Ki: 34.6 nM
Liver microsome
  CLH: 0.59 mL/min
[5]
  Papp A→B at 50 µM: 19.9 ×10⁻⁶ cm/s

## CN(C)CCC(Oc1ccc(NC(=O)Nc2ccc3ccccc3c2)cc1)c1ccccc1 (centres undefined)
Liver
  CLH: 0.03 mL/min
[1]
  Ki: 1.7 nM
[2]
  Ki: 62 nM

## COc1cc(NC(=O)Nc2ccc(Cl)c(Cl)c2)ccc1OC(CCN(C)C)c1ccccc1 (centres undefined)
[1]
  Ki: 2.8 nM
[4]
  inhibition: 38%

## CN(C)CCC(Oc1cccc(NC(=O)Nc2ccc3ccccc3c2)c1)c1ccccc1 (centres undefined)
[1]
  Ki: 87.6 nM
[2]
  Ki: 28.2 nM

## COc1cc(NC(=O)Nc2ccc(OC(CCN(C)C)c3ccccc3)cc2)ccc1Cl (centres undefined)
[1]
  Ki: 16.3 nM
[2]
  Ki: 31 nM

## CSc1ccc(NC(=O)Nc2ccc(OC(CCN(C)C)c3ccccc3)cc2)cc1C(F)(F)F (centres undefined)
[1]
  Ki: 3.4 nM
[4]
  inhibition: 31%

## COc1ccc(NC(=O)Nc2ccc(OC(CCN(C)C)c3ccccc3)cc2)cc1Cl (centres undefined)
In vitro
  efflux ratio at 50 µM: 2.2
[1]
  Ki: 11.2 nM
[2]
  Ki: 41.1 nM
Liver microsome
  CLH: 0.68 mL/min
[5]
  Papp A→B at 50 µM: 7.5 ×10⁻⁶ cm/s

## COc1ccc(NC(=O)Nc2ccc(Cl)c(Cl)c2)cc1OC(CCN(C)C)c1ccccc1 (centres undefined)
[1]
  Ki: 197 nM
[4]
  inhibition: -9%

## CN(C)CCC(Oc1ccc(NC(=O)c2ccc(Cl)c(Cl)c2)cc1)c1ccccc1 (centres undefined)
In vitro
  efflux ratio at 50 µM: 1.1
[1]
  Ki: 57.1 nM
[2]
  Ki: 65.3 nM
Liver microsome
  CLH: 0.65 mL/min
[5]
  Papp A→B at 50 µM: 11.3 ×10⁻⁶ cm/s

## CN(C)CCC(Oc1ccc(NC(=O)N(C)c2ccc(Cl)c(Cl)c2)cc1)c1ccccc1 (centres undefined)
In vitro
  efflux ratio at 50 µM: 1.6
[1]
  Ki: 78.9 nM
[2]
  Ki: 89.6 nM

## CN(C)CCC(Oc1ccc(NC(=O)Nc2ccc3ccn(C)c3c2)cn1)c1ccccc1 (centres undefined)
[3]
  inhibition: 15%
[4]
  inhibition: 1%

## CN(C)CCC(Oc1ccc(NC(=O)Nc2ccc3nccn3c2)cc1)c1ccccc1 (centres undefined)
[2]
  Ki: 4 nM
[3]
  inhibition: 53%

## COc1ccc(C(=O)Nc2ccc(OC(CCN(C)C)c3ccccc3)cc2)cc1Cl (centres undefined)
[1]
  Ki: 152 nM
[2]
  Ki: 15.9 nM
